The values that follow come from publication PMC8286840, “Identifying SARS-CoV-2 antiviral compounds by screening for small molecule inhibitors of Nsp3 papain-like protease” (Biochemical Journal, 2021).

Test [1] deals with T1, SARS-CoV-2 PLpro (nsp3 1564–1878) (Severe acute respiratory syndrome coronavirus 2, UniProt P0DTD1). In words: biochemical. Also on record: FRET-quenched peptide (Pro3) cleavage by PLpro, 10 min pre-incubation, slope over 20 min, normalised to no-compound control. The settings on record: high concentration screen, read-out: % of control remaining.
Test [2] concerns the target T1, SARS-CoV-2 PLpro (nsp3 1564–1878). Put plainly: biochemical. More on the design: FRET-quenched peptide (Pro3) cleavage by PLpro, 10 min pre-incubation, slope over 20 min, normalised to no-compound control. Conditions: low concentration screen, read-out: % of control remaining.

Counter-ions that a name gives are not always drawn. Like-named read-outs stand apart in the source and are kept apart here. Where a SMILES comes first, the peptide text is derived from it.

`N[C@](CCCCB(O)O)(CCN1CCCCC1)C(=O)O` [Arginase inhibitor 1]: the remaining activity at 3.75 µM in test [1] (Well no.=8697) stood at 105%. In addition, in test [2] (Well no.=8697), the remaining activity at 1.25 µM came to 106%.
Consider `O=C1CCc2ccc(OCCCCN3CCN(c4cccc(Cl)c4Cl)CC3)cc2N1` [Aripiprazole], for which the values for the remaining activity at 3.75 µM in test [1] (Well no.=1844) and in test [1] (Well no.=8237) were 95.9% and 95.5%, respectively. Moreover, the remaining activity at 1.25 µM in test [2] (Well no.=1844) is 93.9%; in test [2] (Well no.=8237) it was 102%.
For the molecule `COc1cccc2c1cc([N+](=O)[O-])c1c(C(=O)O)cc3c(c12)OCO3` [Aristolochic acid A], in test [1] (Well no.=3081), the remaining activity at 3.75 µM came to 103%. Further, the remaining activity at 1.25 µM in test [2] (Well no.=3081) came out at 106%.
`CO[C@H]1O[C@@H]2O[C@@]3(C)CC[C@H]4[C@H](C)CC[C@@H]([C@H]1C)[C@@]24OO3` [Artemether (SM-224)]: in test [1] (Well no.=5188), the remaining activity at 3.75 µM stood at 97.4%. Further, the remaining activity at 1.25 µM in test [2] (Well no.=5188) came out at 94.9%.
As for `C[C@H]1[C@H](OC(=O)CCC(=O)O)O[C@@H]2O[C@@]3(C)CC[C@H]4[C@H](C)CC[C@@H]1[C@@]24OO3` [Artesunate], the remaining activity at 3.75 µM is 98.2% in test [1] (Well no.=2200) and 102% in test [1] (Well no.=3083). Besides, the figures for the remaining activity at 1.25 µM in test [2] (Well no.=2200) and in test [2] (Well no.=3083) were 100% and 96%, respectively.
`CCCNC(C)C(=O)Nc1c(C)csc1C(=O)OC` (stereo not shown) [Articaine HCl]: the remaining activity at 3.75 µM in test [1] (Well no.=5367) was 94.3%. For the same molecule, the remaining activity at 1.25 µM in test [2] (Well no.=5367) was determined as 95.8%.
In the case of `CC[C@@H]1/C=C(\C)C[C@H](C)C[C@H](OC)[C@H]2O[C@@](O)(C(=O)C(=O)N3CCCC[C@H]3C(=O)O[C@H](/C(C)=C/[C@@H]3CC[C@@H](O)[C@H](OC)C3)[C@H](C)[C@@H](O)CC1=O)[C@H](C)C[C@@H]2OC` [Ascomycin], the remaining activity at 3.75 µM in test [1] (Well no.=6638) is 98.9%; in test [1] (Well no.=7410), 96.8%. The remaining activity at 1.25 µM came to 102% in test [2] (Well no.=6638) and 98% in test [2] (Well no.=7410).
As to `O=C1O[C@H]([C@@H](O)CO)C(O)=C1O` [Ascorbic acid], the remaining activity at 3.75 µM in test [1] (Well no.=4039) amounted to 99.5%. In addition, the remaining activity at 1.25 µM in test [2] (Well no.=4039) stood at 99.8%.
With `CCCCCCCCCCCCCCCC(=O)OC[C@H](O)[C@H]1OC(=O)C(O)=C1O` [Ascorbyl palmitate], the remaining activity at 3.75 µM in test [1] (Well no.=4041) was found to be 105%. The remaining activity at 1.25 µM in test [2] (Well no.=4041) came out at 102%.
As for `C[C@H]1[C@H](C)CC[C@]2(C(=O)O)CC[C@]3(C)C(=CC[C@@H]4[C@@]5(C)C[C@@H](O)[C@H](O)[C@@](C)(CO)[C@@H]5CC[C@]43C)[C@H]12` [Asiatic acid], the remaining activity at 3.75 µM in test [1] (Well no.=3509) is 103%. In addition, the remaining activity at 1.25 µM in test [2] (Well no.=3509) was 100%.
In the case of `COC(=O)[C@H](Cc1ccccc1)NC(=O)[C@@H](N)CC(=O)O` [Aspartame] (H-Asp-Phe-OMe), the remaining activity at 3.75 µM in test [1] (Well no.=5048) came to 101%; in test [1] (Well no.=7302), 102%. Also, the figures for the remaining activity at 1.25 µM in test [2] (Well no.=5048) and in test [2] (Well no.=7302) were 100% and 102%, respectively.
As to `CC1=C(/C=C/C(C)=C/C=C/C(C)=C/C=C/C=C(C)/C=C/C=C(C)/C=C/C2=C(C)C(=O)[C@@H](O)CC2(C)C)C(C)(C)C[C@H](O)C1=O` [Astaxanthin], in test [1] (Well no.=296), the remaining activity at 3.75 µM was 92.4%. In test [2] (Well no.=296), the remaining activity at 1.25 µM came out at 93.3%.
As to `COc1ccc(CCN2CCC(Nc3nc4ccccc4n3Cc3ccc(F)cc3)CC2)cc1` [Astemizole], the remaining activity at 3.75 µM in test [1] (Well no.=2054) was 102%. Also, the remaining activity at 1.25 µM in test [2] (Well no.=2054) was 102%.
`C[C@@H]1O[C@@H](O[C@H]2C(=O)c3c(O)cc(O)cc3O[C@@H]2c2ccc(O)c(O)c2)[C@H](O)[C@H](O)[C@H]1O` [Astilbin]: the remaining activity at 3.75 µM in test [1] (Well no.=6924) amounted to 106%. Moreover, in test [2] (Well no.=6924), the remaining activity at 1.25 µM worked out at 114%.
For the molecule `CC(C)(O)[C@H]1CC[C@@](C)([C@H]2[C@@H](O)C[C@@]3(C)[C@@H]4C[C@H](O[C@@H]5O[C@H](CO)[C@@H](O)[C@H](O)[C@H]5O)[C@H]5C(C)(C)[C@@H](O[C@@H]6OC[C@@H](O)[C@H](O)[C@H]6O)CC[C@@]56C[C@@]46CC[C@]23C)O1` [Astragaloside A], in test [1] (Well no.=5238), the remaining activity at 3.75 µM stood at 102%. Further, the remaining activity at 1.25 µM in test [2] (Well no.=5238) came out at 98.6%.
Consider `CN(C)C(N)=NCCC[C@H](N)C(=O)O` [Asymmetric dimethylarginine], for which the remaining activity at 3.75 µM in test [1] (Well no.=7119) came out at 102%. In addition, in test [2] (Well no.=7119), the remaining activity at 1.25 µM was found to be 103%.
As to `COC(=O)N[C@H](C(=O)N[C@@H](Cc1ccccc1)[C@@H](O)CN(Cc1ccc(-c2ccccn2)cc1)NC(=O)[C@@H](NC(=O)OC)C(C)(C)C)C(C)(C)C` [Atazanavir sulfate], the remaining activity at 3.75 µM in test [1] (Well no.=5245) was 101%. For the same molecule, in test [2] (Well no.=5245), the remaining activity at 1.25 µM is 96.5%.
Turning to `COC(=O)N[C@H](C(=O)N[C@@H](Cc1ccccc1)[C@@H](O)CN(Cc1ccc(-c2ccccn2)cc1)NC(=O)[C@@H](NC(=O)OC)C(C)(C)C)C(C)(C)C` [Atazanavir], the remaining activity at 3.75 µM in test [1] (Well no.=1918) worked out at 95.7%. Moreover, the remaining activity at 1.25 µM in test [2] (Well no.=1918) was found to be 97.5%.
On to `CC(C)NCC(O)COc1ccc(CC(N)=O)cc1` (stereo not shown) [Atenolol], for which the remaining activity at 3.75 µM turned out to be 104% in test [1] (Well no.=2131) and 98.5% in test [1] (Well no.=7671). The remaining activity at 1.25 µM in test [2] (Well no.=2131) worked out at 103%; in test [2] (Well no.=7671) it was 97.3%.
Consider `CN(C)C(=O)Nc1cccc(-c2ccc(N(C)C)cc2)c1` [Atglistatin], for which, in test [1] (Well no.=5396), the remaining activity at 3.75 µM is 81.1%. In addition, in test [2] (Well no.=5396), the remaining activity at 1.25 µM was determined as 98.8%.
With `CCC1(c2c[nH]cn2)Cc2ccccc2C1` [Atipamezole (hydrochloride)], the remaining activity at 3.75 µM in test [1] (Well no.=7481) came to 98.7%. For the same molecule, the remaining activity at 1.25 µM in test [2] (Well no.=7481) worked out at 102%.
As for `CCC1(c2c[nH]cn2)Cc2ccccc2C1` [Atipamezole], the remaining activity at 3.75 µM in test [1] (Well no.=6663) worked out at 101%. In addition, in test [2] (Well no.=6663), the remaining activity at 1.25 µM is 101%.
In the case of `CC(C)c1c(C(=O)Nc2ccccc2)c(-c2ccccc2)c(-c2ccc(F)cc2)n1CC[C@@H](O)C[C@@H](O)CC(=O)O` [Atorvastatin Calcium], the remaining activity at 3.75 µM in test [1] (Well no.=8096) was found to be 98.2%. Moreover, the remaining activity at 1.25 µM in test [2] (Well no.=8096) amounted to 95.7%.
Consider `O=C1C(O)=C([C@H]2CC[C@H](c3ccc(Cl)cc3)CC2)C(=O)c2ccccc21` [Atovaquone], for which the remaining activity at 3.75 µM in test [1] (Well no.=1838) came to 94.9%. The remaining activity at 1.25 µM in test [2] (Well no.=1838) is 92.3%.
In the case of `COc1ccc(C[C@@H]2c3cc(OC)c(OC)cc3CC[N@+]2(C)CCC(=O)OCCCCCOC(=O)CC[N@@+]2(C)CCc3cc(OC)c(OC)cc3[C@H]2Cc2ccc(OC)c(OC)c2)cc1OC` [Atracurium besylate], the remaining activity at 3.75 µM in test [1] (Well no.=2133) amounted to 98.2%. In addition, the remaining activity at 1.25 µM in test [2] (Well no.=2133) was found to be 92.8%.
As for `CN1[C@@H]2CC[C@H]1C[C@@H](OC(=O)C(CO)c1ccccc1)C2` (stereo partly shown) [Atropine (sulfate monohydrate)], the remaining activity at 3.75 µM in test [1] (Well no.=7677) came out at 94.5%. Besides, in test [2] (Well no.=7677), the remaining activity at 1.25 µM came out at 93.8%.
Regarding `C[N+]1(C)[C@@H]2CC[C@H]1C[C@@H](OC(=O)C(CO)c1ccccc1)C2` (stereo partly shown) [Atropine methyl bromide], the remaining activity at 3.75 µM in test [1] (Well no.=117) was 96.6%. In test [2] (Well no.=117), the remaining activity at 1.25 µM was 100%.
